PubChem BioAssay AID1963981 (Molecular Pharmacology Branch, DTP, NCI, 2024)
pIC50: −log10 of the molar value. Where “and” joins values, the source holds several entries; their conditions need not be identical. Identical values can stand only once. Values belong to the compound of their own block, whether it stands above or below them.

Tested on: 354836-022-R-J1-PDC multicell spheroid viability
Assay: Anticancer human tumor 354836-022-R-J1-PDC patient-derived head and neck squamous cell carcinoma cell line growth inhibition [PI3K]
Conditions: for viability, T/C: stronger effect = lower value
Method in brief: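 Multi-cell spheroids combine tumor cells with HUVEC and human MSCs, treated with targeted agents alone or with inavolisib, alpelisib, duvelisib or copanlisib. Concentrations fall in half-log steps from at or near clinical Cmax, or from 10 microM where Cmax is unknown; viability read-out.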

[1] = curve of first compound, second compound 0.00316 µM
[2] = curve of first compound, second compound 0.01 µM
[3] = curve of first compound, second compound 0.0316 µM
[4] = curve of first compound, second compound 0.1 µM
[5] = curve of first compound, second compound 0.316 µM
[6] = curve of first compound, second compound 1 µM
[7] = second compound 0.00316 µM, first compound 0.0316 µM
[8] = second compound 0.00316 µM, first compound 0.1 µM
[9] = second compound 0.00316 µM, first compound 0.316 µM
[10] = second compound 0.00316 µM, first compound 1 µM
[11] = second compound 0.00316 µM, first compound 3.16 µM
[12] = second compound 0.00316 µM, first compound 10 µM
[13] = second compound 0.01 µM, first compound 0.0316 µM
[14] = second compound 0.01 µM, first compound 0.1 µM
[15] = second compound 0.01 µM, first compound 0.316 µM
[16] = second compound 0.01 µM, first compound 1 µM
[17] = second compound 0.01 µM, first compound 3.16 µM
[18] = second compound 0.01 µM, first compound 10 µM
[19] = second compound 0.0316 µM, first compound 0.0316 µM
[20] = second compound 0.0316 µM, first compound 0.1 µM
[21] = second compound 0.0316 µM, first compound 0.316 µM
[22] = second compound 0.0316 µM, first compound 1 µM
[23] = second compound 0.0316 µM, first compound 3.16 µM
[24] = second compound 0.0316 µM, first compound 10 µM
[25] = second compound 0.1 µM, first compound 0.0316 µM
[26] = second compound 0.1 µM, first compound 0.1 µM
[27] = second compound 0.1 µM, first compound 0.316 µM
[28] = second compound 0.1 µM, first compound 1 µM
[29] = second compound 0.1 µM, first compound 3.16 µM
[30] = second compound 0.1 µM, first compound 10 µM
[31] = second compound 0.316 µM, first compound 0.0316 µM
[32] = second compound 0.316 µM, first compound 0.1 µM
[33] = second compound 0.316 µM, first compound 0.316 µM
[34] = second compound 0.316 µM, first compound 1 µM
[35] = second compound 0.316 µM, first compound 3.16 µM
[36] = second compound 0.316 µM, first compound 10 µM
[37] = second compound 1 µM, first compound 0.0316 µM
[38] = second compound 1 µM, first compound 0.1 µM
[39] = second compound 1 µM, first compound 0.316 µM
[40] = second compound 1 µM, first compound 1 µM
[41] = second compound 1 µM, first compound 3.16 µM
[42] = second compound 1 µM, first compound 10 µM
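Further: spheroids exposed to agents for seven days before the viability read.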

pIC50 [1]: > 7.50
pIC50 [2]: > 7.50
pIC50 [3]: > 7.50
pIC50 [4]: > 7.50
pIC50 [5]: > 7.50
pIC50 [6]: > 7.50
Compound: CC1(C)CCC(Nc2ncc(C(F)(F)F)c(-c3c[nH]c4c(P(C)(C)=O)c(C#N)ccc34)n2)CN1 (stereo unspecified) + CC(Nc1ccc2c(c1)OCCn1cc(N3C(=O)OCC3C(F)F)nc1-2)C(N)=O
viability, T/C [7]: 21.5%
viability, T/C [8]: 18.9%
viability, T/C [9]: 21.4%
viability, T/C [10]: 22.9%
viability, T/C [11]: 32.5%
viability, T/C [12]: 2.76%
viability, T/C [13]: 28.1%
viability, T/C [14]: 18.5%
viability, T/C [15]: 27.8%
viability, T/C [16]: 25.4%
viability, T/C [17]: 32.9%
viability, T/C [18]: 2.41%
viability, T/C [19]: 16.7%
viability, T/C [20]: 21.1%
viability, T/C [21]: 16.9%
viability, T/C [22]: 19%
viability, T/C [23]: 23.6%
viability, T/C [24]: 1.33%
viability, T/C [25]: 18.6%
viability, T/C [26]: 15.8%
viability, T/C [27]: 22.1%
viability, T/C [28]: 16.2%
viability, T/C [29]: 22.3%
viability, T/C [30]: 1.47%
viability, T/C [31]: 12.8%
viability, T/C [32]: 15.8%
viability, T/C [33]: 14.7%
viability, T/C [34]: 19.9%
viability, T/C [35]: 18.3%
viability, T/C [36]: 1.99%
viability, T/C [37]: 14.1%
viability, T/C [38]: 13%
viability, T/C [39]: 14.1%
viability, T/C [40]: 16.6%
viability, T/C [41]: 19.3%
viability, T/C [42]: 1.51%

pIC50 (curve of compound): < 7.00
Compound: CC(=O)c1c(C)c2cnc(Nc3ccc(N4CCNCC4)cn3)nc2n(C2CCCC2)c1=O
viability, T/C (compound 0.000316 µM): 105% (2×) and 101% and 106%
viability, T/C (compound 0.001 µM): 104% [middle of 4 runs]
viability, T/C (compound 0.00316 µM): 105% [middle of 4 runs]
viability, T/C (compound 0.01 µM): 102% [middle of 4 runs]
viability, T/C (compound 0.0316 µM): 103% [middle of 4 runs]
viability, T/C (compound 0.1 µM): 104% [middle of 4 runs]

pIC50 [1]: 6.83
pIC50 [2]: 6.66
pIC50 [3]: 6.94
pIC50 [4]: > 7.50
pIC50 [5]: > 7.50
pIC50 [6]: > 7.50
Compound: Cn1ncc(Cl)c1-c1cc(C(=O)NC(CN)Cc2cccc(F)c2)sc1Cl (stereo unspecified) + COc1c(OCCCN2CCOCC2)ccc2c3n(c(=NC(=O)c4cnc(N)nc4)nc12)CCN3
viability, T/C [7]: 78%
viability, T/C [8]: 56%
viability, T/C [9]: 37.3%
viability, T/C [10]: 23.2%
viability, T/C [11]: 8.77%
viability, T/C [12]: 1.45%
viability, T/C [13]: 73%
viability, T/C [14]: 74.2%
viability, T/C [15]: 37.2%
viability, T/C [16]: 19%
viability, T/C [17]: 8.38%
viability, T/C [18]: 1.92%
viability, T/C [19]: 66.7%
viability, T/C [20]: 52.8%
viability, T/C [21]: 33.1%
viability, T/C [22]: 16.1%
viability, T/C [23]: 8.7%
viability, T/C [24]: 2.85%
viability, T/C [25]: 45.2%
viability, T/C [26]: 33.6%
viability, T/C [27]: 20.1%
viability, T/C [28]: 8.6%
viability, T/C [29]: 2.88%
viability, T/C [30]: 0.98%
viability, T/C [31]: 14.4%
viability, T/C [32]: 10.3%
viability, T/C [33]: 5.2%
viability, T/C [34]: 2.69%
viability, T/C [35]: 3.48%
viability, T/C [36]: 1.06%
viability, T/C [37]: 1.56%
viability, T/C [38]: 1.83%
viability, T/C [39]: 1.63%
viability, T/C [40]: 2.2%
viability, T/C [41]: 1.8%
viability, T/C [42]: 1.4%

pIC50 [1]: 5.36
pIC50 [2]: 5.40
pIC50 [3]: 5.46
pIC50 [4]: 5.37
pIC50 [5]: 5.47
pIC50 [6]: 5.63
Compound: CC1(C)CCC(CN2CCN(c3ccc(C(=O)NS(=O)(=O)c4ccc(NCC5CCOCC5)c([N+](=O)[O-])c4)c(Oc4cnc5[nH]ccc5c4)c3)CC2)=C(c2ccc(Cl)cc2)C1 + CC(Nc1ccc2c(c1)OCCn1cc(N3C(=O)OCC3C(F)F)nc1-2)C(N)=O
viability, T/C [7]: 96.5%
viability, T/C [8]: 96.9%
viability, T/C [9]: 87.7%
viability, T/C [10]: 70.5%
viability, T/C [11]: 74.6%
viability, T/C [12]: 8.4%
viability, T/C [13]: 106%
viability, T/C [14]: 91%
viability, T/C [15]: 95.2%
viability, T/C [16]: 81.1%
viability, T/C [17]: 62.8%
viability, T/C [18]: 9.3%
viability, T/C [19]: 89.1%
viability, T/C [20]: 103%
viability, T/C [21]: 92.3%
viability, T/C [22]: 99.5%
viability, T/C [23]: 54%
viability, T/C [24]: 8.28%
viability, T/C [25]: 81.4%
viability, T/C [26]: 81.6%
viability, T/C [27]: 94.2%
viability, T/C [28]: 85.5%
viability, T/C [29]: 63.4%
viability, T/C [30]: 11.4%
viability, T/C [31]: 71%
viability, T/C [32]: 69.2%
viability, T/C [33]: 72.8%
viability, T/C [34]: 69.8%
viability, T/C [35]: 52%
viability, T/C [36]: 10.8%
viability, T/C [37]: 62%
viability, T/C [38]: 56.2%
viability, T/C [39]: 50.2%
viability, T/C [40]: 64.7%
viability, T/C [41]: 47%
viability, T/C [42]: 10.2%

pIC50 [3]: < 5.00
pIC50 [4]: < 5.00
pIC50 [5]: < 5.00
pIC50 [6]: < 5.00
pIC50 (curve of first compound, second compound 3.16 µM): < 5.00
pIC50 (curve of first compound, second compound 10 µM): > 7.50
Compound: C[C@@H](NC(=O)c1ncnc(N)c1Cl)c1ncc(C(=O)Nc2cc(C(F)(F)F)c(Cl)cn2)s1 + Cc1nc(NC(=O)N2CCCC2C(N)=O)sc1-c1ccnc(C(C)(C)C(F)(F)F)c1
viability, T/C [19]: 103%
viability, T/C [20]: 78.6%
viability, T/C [21]: 95.9%
viability, T/C [22]: 87.3%
viability, T/C [23]: 86.6%
viability, T/C [24]: 60.6%
viability, T/C [25]: 94.6%
viability, T/C [26]: 95.4%
viability, T/C [27]: 98%
viability, T/C [28]: 97.2%
viability, T/C [29]: 96.7%
viability, T/C [30]: 66.2%
viability, T/C [31]: 77.7%
viability, T/C [32]: 89.7%
viability, T/C [33]: 86.5%
viability, T/C [34]: 90.8%
viability, T/C [35]: 89.6%
viability, T/C [36]: 77.8%
viability, T/C [37]: 65.3%
viability, T/C [38]: 87.1%
viability, T/C [39]: 76.4%
viability, T/C [40]: 75.3%
viability, T/C [41]: 78.4%
viability, T/C [42]: 67.7%
viability, T/C (second compound 3.16 µM, first compound 0.0316 µM): 53.9%
viability, T/C (second compound 3.16 µM, first compound 0.1 µM): 59.8%
viability, T/C (second compound 3.16 µM, first compound 0.316 µM): 70.1%
viability, T/C (second compound 3.16 µM, first compound 1 µM): 59.7%
viability, T/C (second compound 3.16 µM, first compound 3.16 µM): 66.5%
viability, T/C (second compound 3.16 µM, first compound 10 µM): 37.8%
viability, T/C (second compound 10 µM, first compound 0.0316 µM): 32.1%
viability, T/C (second compound 10 µM, first compound 0.1 µM): 38.4%
viability, T/C (second compound 10 µM, first compound 0.316 µM): 37.8%
viability, T/C (second compound 10 µM, first compound 1 µM): 39.2%
viability, T/C (second compound 10 µM, first compound 3.16 µM): 36.1%
viability, T/C (second compound 10 µM, first compound 10 µM): 16.7%

pIC50 (curve of compound): < 5.00
Compound: C#Cc1c(F)ccc2cc(O)cc(-c3ncc4c(N5CC6CCC(C5)N6)nc(OCC56CCCN5CC(F)C6)nc4c3F)c12 (stereo unspecified)
viability, T/C (compound 0.0316 µM): 101% [middle of 4 runs]
viability, T/C (compound 0.1 µM): 101% [middle of 4 runs]
viability, T/C (compound 1 µM): 87.7% [middle of 4 runs]
viability, T/C (compound 3.16 µM): 95.4% [middle of 4 runs]
viability, T/C (compound 10 µM): 90.5% [middle of 4 runs]
